Test results published in ChEMBL document CHEMBL5316263, “Structure-Based Discovery of Selective Histone Deacetylase 8 Degraders with Potent Anticancer Activity” (J Med Chem, 2023).
Calls of active or inactive are those of the source. The calls are words filed in the database; no cut-off is given here.

Assays:
[1] = tested on: A549; assay: Induction of apoptosis in human A549 cells assessed as early apoptotic cells at 5 uM incubated for 72 hrs by annexin V-FITC staining based flow cytometry (reference value: 0.099%); type: functional
[2] = target: T1, Protein cereblon/Histone deacetylase 8 (Homo sapiens) (UniProt Q9BY41+Q96SW2); assay: Protac activity at CRBN/HDAC8 in human A549 cells assessed as reduction in HDAC8 protein level by Western blot analysis; type: cell-based; conditions: dose 0.2-10 µM
T1 sequence (Q96SW2 whole entry, looked up): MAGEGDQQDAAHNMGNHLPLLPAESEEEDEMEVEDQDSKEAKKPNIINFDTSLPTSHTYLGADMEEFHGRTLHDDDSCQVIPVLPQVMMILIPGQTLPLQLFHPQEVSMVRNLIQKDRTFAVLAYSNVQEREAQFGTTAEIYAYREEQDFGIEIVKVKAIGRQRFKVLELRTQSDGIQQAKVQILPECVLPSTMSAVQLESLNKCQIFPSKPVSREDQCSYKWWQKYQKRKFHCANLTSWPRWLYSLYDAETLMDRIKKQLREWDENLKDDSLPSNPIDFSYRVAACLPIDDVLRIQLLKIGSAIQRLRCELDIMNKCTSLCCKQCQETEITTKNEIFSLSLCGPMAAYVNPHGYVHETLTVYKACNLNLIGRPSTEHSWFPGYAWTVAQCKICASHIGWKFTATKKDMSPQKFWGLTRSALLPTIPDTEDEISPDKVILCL
T1 sequence (Q9BY41 whole entry, looked up): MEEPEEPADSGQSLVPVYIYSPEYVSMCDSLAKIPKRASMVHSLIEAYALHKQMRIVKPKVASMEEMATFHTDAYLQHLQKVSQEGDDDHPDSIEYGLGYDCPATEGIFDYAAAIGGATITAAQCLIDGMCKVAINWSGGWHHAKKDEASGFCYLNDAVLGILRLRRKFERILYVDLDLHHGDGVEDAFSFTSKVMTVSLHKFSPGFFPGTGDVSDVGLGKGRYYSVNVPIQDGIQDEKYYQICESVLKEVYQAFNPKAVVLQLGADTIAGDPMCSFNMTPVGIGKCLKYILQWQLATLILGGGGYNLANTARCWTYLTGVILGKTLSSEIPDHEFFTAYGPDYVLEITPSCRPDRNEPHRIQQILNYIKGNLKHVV

[3] = tested on: A549; assay: Induction of apoptosis in human A549 cells assessed as necrotic cells at 20 uM incubated for 72 hrs by annexin V-FITC staining based flow cytometry relative to control; type: functional
[4] = tested on: A549; assay: Inhibition of DNA damage repair in human A549 cells assessed as reduction in number of gamma-H2AX foci at 5 uM incubated for 24 hrs followed by irradiation for 4 hrs by immunofluorescence staining based analysis; type: functional, cell-based
[5] = tested on: A549; assay: Effect on MAPK4 gene in human A549 cells at 10 uM measured after 20 hrs by RNA sequencing analysis; type: functional, cell-based
[6] = tested on: A549; assay: Induction of apoptosis in human A549 cells assessed as late apoptotic cells at 2.5 uM incubated for 72 hrs by annexin V-FITC staining based flow cytometry (reference value: 0.048%); type: functional
[7] = target: T1, Protein cereblon/Histone deacetylase 8 (Homo sapiens); assay: Protac activity at CRBN/HDAC8 in human A549 cells assessed as reduction in HDAC8 protein levels at 10 uM measured after 18 hrs by Western blot analysis relative to control; type: cell-based; set-up: scale not given: the % may be the effect or the level left
[8] = tested on: A549; assay: Induction of apoptosis in human A549 cells assessed as late apoptotic cells at 5 uM incubated for 72 hrs by annexin V-FITC staining based flow cytometry (reference value: 0.048%); type: functional
[9] = target: Cereblon/Ikaros (Homo sapiens) (UniProt Q96SW2+Q13422); assay: Protac activity at CRBN/IKZF1 in human A549 cells assessed as reduction in IKZF1 protein level at 10 uM by Western blot analysis; type: cell-based
[10] = tested on: A549; assay: Antitumor activity against human A549 cells xenografted in NOD/SCID mouse assessed as increase in number of necrotic cells at 5 mg/kg, ip administered every 5 days measured at day 30 under irradiation condition by H and E staining based analysis; type: functional, organism-based; conditions: time 30.0 day
[11] = target: Protein cereblon/NAD-dependent protein deacetylase sirtuin-7 (Homo sapiens) (UniProt Q9NRC8+Q96SW2); assay: Protac activity at CRBN/Sirt7 in human A549 cells assessed as reduction in Sirt7 protein level at 0.1 to 10 uM by Western blot analysis; type: cell-based; conditions: dose 0.1-10 µM
Protein cereblon/NAD-dependent protein deacetylase sirtuin-7 (Homo sapiens), sequence (Q96SW2 whole entry, looked up): as the sequence (Q96SW2 whole entry, looked up) above
Protein cereblon/NAD-dependent protein deacetylase sirtuin-7 (Homo sapiens), sequence (Q9NRC8 whole entry, looked up): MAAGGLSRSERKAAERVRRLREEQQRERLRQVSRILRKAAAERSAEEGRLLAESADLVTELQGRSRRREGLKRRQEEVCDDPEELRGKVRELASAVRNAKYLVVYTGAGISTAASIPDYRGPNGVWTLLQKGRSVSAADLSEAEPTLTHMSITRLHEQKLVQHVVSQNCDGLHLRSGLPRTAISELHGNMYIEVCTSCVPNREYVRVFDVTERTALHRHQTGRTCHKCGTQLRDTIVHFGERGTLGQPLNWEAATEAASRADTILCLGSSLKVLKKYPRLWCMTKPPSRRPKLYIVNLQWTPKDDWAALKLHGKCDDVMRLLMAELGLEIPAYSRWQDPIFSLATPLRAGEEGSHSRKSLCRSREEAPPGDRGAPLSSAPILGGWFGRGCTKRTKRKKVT

[12] = target: T1, Protein cereblon/Histone deacetylase 8 (Homo sapiens); assay: Protac activity at CRBN/HDAC8 in human A549 cells assessed as maximum degradation at 10 uM incubated for 20 hrs by ELISA method relative to control; type: cell-based
[13] = tested on: A549; assay: Induction of apoptosis in human A549 cells assessed as late apoptotic cells at 20 uM incubated for 72 hrs by annexin V-FITC staining based flow cytometry (reference value: 0.048%); type: functional
[14] = tested on: A549; assay: Effect on OASL gene in human A549 cells at 10 uM measured after 20 hrs by RNA sequencing analysis; type: functional, cell-based
[15] = target: Protein cereblon/Histone deacetylase 2 (Homo sapiens) (UniProt Q92769+Q96SW2); assay: Protac activity at CRBN/HDAC2 in human A549 cells assessed as reduction in HDAC2 protein level at 0.1 to 10 uM by Western blot analysis; type: cell-based; conditions: dose 0.1-10 µM
Protein cereblon/Histone deacetylase 2 (Homo sapiens), sequence (Q92769 whole entry, looked up): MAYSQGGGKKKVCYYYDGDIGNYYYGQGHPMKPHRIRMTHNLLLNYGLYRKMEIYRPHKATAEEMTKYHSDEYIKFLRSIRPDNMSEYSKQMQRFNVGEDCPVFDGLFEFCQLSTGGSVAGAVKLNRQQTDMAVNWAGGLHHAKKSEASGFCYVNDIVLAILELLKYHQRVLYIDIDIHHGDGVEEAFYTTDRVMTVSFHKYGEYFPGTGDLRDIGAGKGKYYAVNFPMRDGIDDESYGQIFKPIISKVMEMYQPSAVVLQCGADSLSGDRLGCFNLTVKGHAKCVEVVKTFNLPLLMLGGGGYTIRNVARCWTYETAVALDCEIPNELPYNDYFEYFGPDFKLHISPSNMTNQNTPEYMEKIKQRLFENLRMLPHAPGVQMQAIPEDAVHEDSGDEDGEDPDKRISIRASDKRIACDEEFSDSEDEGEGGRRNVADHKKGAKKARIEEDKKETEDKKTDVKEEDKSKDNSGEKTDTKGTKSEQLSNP
Protein cereblon/Histone deacetylase 2 (Homo sapiens), sequence (Q96SW2 whole entry, looked up): as the sequence (Q96SW2 whole entry, looked up) above

[16] = tested on: A549; assay: Induction of apoptosis in human A549 cells assessed as viable cells at 5 uM incubated for 72 hrs by annexin V-FITC staining based flow cytometry (reference value: 99.9%); type: functional; conditions: read-out: Activity
[17] = tested on: A549; assay: Induction of apoptosis in human A549 cells assessed as necrotic cells at 5 uM incubated for 72 hrs by annexin V-FITC staining based flow cytometry relative to control; type: functional
[18] = target: T1, Protein cereblon/Histone deacetylase 8 (Homo sapiens); assay: Protac activity at CRBN/HDAC8 in human HBEC3-KT cells at 0.1 to 10 uM measured after 20 hrs by Western blot analysis; type: cell-based; conditions: dose 0.1-10 µM
[19] = tested on: A549; assay: Downregulation of HSPA6 in human A549 cells measured after 20 hrs by proteomic analysis; type: functional, cell-based
[20] = tested on: A549; assay: Effect on EREG gene in human A549 cells at 10 uM measured after 20 hrs by RNA sequencing analysis; type: functional, cell-based
[21] = tested on: A549; assay: Induction of apoptosis in human A549 cells assessed as early apoptotic cells at 1.25 uM incubated for 72 hrs by annexin V-FITC staining based flow cytometry (reference value: 0.099%); type: functional
[22] = tested on: A549; assay: Effect on DKK1 gene in human A549 cells at 10 uM measured after 20 hrs by RNA sequencing analysis; type: functional, cell-based
[23] = tested on: A549; assay: Induction of apoptosis in human A549 cells assessed as necrotic cells at 10 uM incubated for 72 hrs by annexin V-FITC staining based flow cytometry relative to control; type: functional
[24] = tested on: HBEC3-KT; assay: Antiproliferative activity against human HBEC3-KT cells at 0.1 to 10 uM measured after 72 hrs by CCK-8 method; type: functional, cell-based; conditions: dose 0.1-10 µM
[25] = target: Protein cereblon/Histone deacetylase 9 (Homo sapiens) (UniProt Q9UKV0+Q96SW2); assay: Protac activity at CRBN/HDAC9 in human A549 cells assessed as reduction in HDAC9 protein level at 0.1 to 10 uM by Western blot analysis; type: cell-based; conditions: dose 0.1-10 µM
Protein cereblon/Histone deacetylase 9 (Homo sapiens), sequence (Q96SW2 whole entry, looked up): as above
Protein cereblon/Histone deacetylase 9 (Homo sapiens), sequence (Q9UKV0 whole entry, looked up): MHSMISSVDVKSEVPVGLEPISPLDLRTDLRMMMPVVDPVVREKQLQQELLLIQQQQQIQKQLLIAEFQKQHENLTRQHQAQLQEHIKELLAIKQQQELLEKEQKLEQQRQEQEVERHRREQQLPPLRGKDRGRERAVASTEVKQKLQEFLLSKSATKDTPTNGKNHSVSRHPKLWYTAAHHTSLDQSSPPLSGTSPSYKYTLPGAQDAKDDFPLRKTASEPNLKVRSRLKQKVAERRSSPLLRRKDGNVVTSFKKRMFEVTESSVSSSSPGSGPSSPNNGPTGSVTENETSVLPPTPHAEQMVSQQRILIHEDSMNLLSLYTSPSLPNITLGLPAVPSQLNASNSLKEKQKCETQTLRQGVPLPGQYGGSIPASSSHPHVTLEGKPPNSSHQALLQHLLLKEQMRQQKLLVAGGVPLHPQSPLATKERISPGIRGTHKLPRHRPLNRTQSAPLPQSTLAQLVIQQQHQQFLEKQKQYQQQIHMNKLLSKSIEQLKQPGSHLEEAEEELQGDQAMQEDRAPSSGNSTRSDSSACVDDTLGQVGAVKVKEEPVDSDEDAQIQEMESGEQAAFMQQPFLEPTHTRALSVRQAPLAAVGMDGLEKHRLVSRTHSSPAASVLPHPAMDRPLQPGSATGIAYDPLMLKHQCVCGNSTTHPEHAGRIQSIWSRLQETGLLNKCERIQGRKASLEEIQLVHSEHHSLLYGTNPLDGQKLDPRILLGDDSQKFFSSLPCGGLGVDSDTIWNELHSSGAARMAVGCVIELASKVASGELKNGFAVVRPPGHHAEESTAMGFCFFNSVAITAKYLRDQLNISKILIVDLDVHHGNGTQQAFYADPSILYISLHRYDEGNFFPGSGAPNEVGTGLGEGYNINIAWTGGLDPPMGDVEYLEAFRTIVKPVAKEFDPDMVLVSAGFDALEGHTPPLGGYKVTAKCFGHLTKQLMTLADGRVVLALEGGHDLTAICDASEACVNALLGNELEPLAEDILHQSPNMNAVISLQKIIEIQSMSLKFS

[26] = tested on: A549; assay: Induction of apoptosis in human A549 cells assessed as downregulation of PCNA level at 1.25 to 20 uM measured after 48 hrs by Western blot analysis; type: functional, cell-based; conditions: dose 1.25-20 µM
[27] = target: T1, Protein cereblon/Histone deacetylase 8 (Homo sapiens); assay: In vivo protac activity at CRBN/HDAC8 in human A549 cells xenografted in NOD/SCID mouse assessed as degradation of HDAC8 at 5 mg/kg, ip administered every 5 days measured at day 30 under irradiation condition by Western blot analysis; type: functional, organism-based; conditions: time 30.0 day
[28] = tested on: A549; assay: Downregulation of RIMKLB in human A549 cells measured after 20 hrs by proteomic analysis; type: functional, cell-based
[29] = target: T1, Protein cereblon/Histone deacetylase 8 (Homo sapiens); assay: Protac activity at CRBN/HDAC8 in human A549 cells assessed as degradation of HDAC8 at 200 nM measured after 20 hrs by Western blot analysis relative to control; type: cell-based
[30] = target: T1, Protein cereblon/Histone deacetylase 8 (Homo sapiens); assay: Protac activity at CRBN/HDAC8 in human A549 cells assessed as reduction in HDAC8 protein levels at 10 uM measured after 16 hrs by Western blot analysis; type: cell-based
[31] = tested on: A549; assay: Induction of apoptosis in human A549 cells assessed as viable cells at 10 uM incubated for 72 hrs by annexin V-FITC staining based flow cytometry (reference value: 99.9%); type: functional; conditions: read-out: Activity
[32] = tested on: A549; assay: Antitumor activity against human A549 cells xenografted in NOD/SCID mouse assessed as decrease in HDAC8 expression at 5 mg/kg, ip administered every 5 days measured at day 30 by […] analysis; type: functional, organism-based; conditions: time 30.0 day
[33] = tested on: A549; assay: Induction of apoptosis in human A549 cells assessed as viable cells at 1.25 uM incubated for 72 hrs by annexin V-FITC staining based flow cytometry (reference value: 99.9%); type: functional; conditions: read-out: Activity
[34] = tested on: A549; assay: Downregulation of IL6ST in human A549 cells measured after 20 hrs by proteomic analysis; type: functional, cell-based
[35] = tested on: A549; assay: Induction of apoptosis in human A549 cells assessed as late apoptotic cells at 5 uM by annexin V-FITC staining based flow cytometry (reference value: 0.00%); type: functional

O=C1CCC(N2C(=O)c3cccc(NCc4cn(CCOCCOc5ccc(Cn6ccc7ccc(C(=O)NO)cc76)cc5)nn4)c3C2=O)C(=O)N1 (stereo not given)
Activity [1]: 21.6% | Activity [2]: Dose-Dependent Effect | Activity [3]: 0% | inhibition [4]: Active | Activity [5]: Active | Activity [6]: 15.3% | Activity [7]: 100% | Activity [8]: 21.8% | Activity [9]: Active | Activity [10]: Active | Activity [11]: inactive | Emax [12]: > 95% | Activity [13]: 22.7% | Activity [14]: Active | Activity [15]: inactive | viability at 5 µM [16]: 54.9% | Activity [17]: 2.49% | Activity [18]: inactive | Activity [19]: Active | Activity [20]: Active | Activity [21]: 24.2% | Activity [22]: Active | Activity [23]: 1.52% | Activity [24]: Active | Activity [25]: inactive | Activity [26]: Active | Activity [27]: Active | Activity [28]: Active | Activity [29]: 39.7% | Activity [30]: Active | viability at 10 µM [31]: 42.7% | Activity [32]: Active | viability at 1.25 µM [33]: 68.2% | Activity [34]: Active | Activity [35]: 6.19%
